The source made the active and inactive calls. The calls are words filed in the database; no cut-off is given here.
Assays:
MOLT-4 = assay: Antiproliferative activity against human MOLT4 cells assessed as growth inhibition after 48 hrs by sulforhodamine B assay; format: functional; conditions: MOLT-4, 48 h
Erythrocyte [1] = assay: Haemolytic activity in human erythrocytes assessed as induction of hemolysis at 0.625 mM after 30 mins relative to H202; format: cell-based; conditions: erythrocyte, 0.5 h, 625 µM
SNB-75 = assay: Antiproliferative activity against human SNB75 cells assessed as growth inhibition after 48 hrs by sulforhodamine B assay; format: functional; conditions: SNB-75, 48 h
MDA-MB-435 = assay: Antiproliferative activity against human MDA-MB-435 cells assessed as growth inhibition after 48 hrs by sulforhodamine B assay; format: functional; conditions: MDA-MB-435, 48 h
SK-OV-3 = assay: Antiproliferative activity against human SKOV3 cells assessed as growth inhibition after 48 hrs by sulforhodamine B assay; format: functional; conditions: SK-OV-3, 48 h
EKVX = assay: Antiproliferative activity against human EKVX cells assessed as growth inhibition after 48 hrs by sulforhodamine B assay; format: functional
WI-38 = assay: Cytotoxicity activity against human WI38 cells assessed as reduction in cell viability measured after 48 hrs by MTT assay; format: cell-based; conditions: WI-38, 48 h
HT-29 = assay: Antiproliferative activity against human HT-29 cells assessed as growth inhibition after 48 hrs by sulforhodamine B assay; format: functional; conditions: HT-29, 48 h
ACHN = assay: Antiproliferative activity against human ACHN cells assessed as growth inhibition after 48 hrs by sulforhodamine B assay; format: functional
Malme-3M = assay: Antiproliferative activity against human MALME-3M cells assessed as growth inhibition after 48 hrs by sulforhodamine B assay; format: functional
CCRF-CEM = assay: Antiproliferative activity against human CCRF-CEM cells assessed as growth inhibition after 48 hrs by sulforhodamine B assay; format: functional
HCT-15 = assay: Antiproliferative activity against human HCT15 cells assessed as growth inhibition after 48 hrs by sulforhodamine B assay; format: functional; conditions: HCT-15, 48 h
SF-295 = assay: Antiproliferative activity against human SF295 cells assessed as growth inhibition after 48 hrs by sulforhodamine B assay; format: functional; conditions: SF-295, 48 h
NCI/ADR-RES = assay: Antiproliferative activity against human NCI-ADR-RES cells assessed as growth inhibition after 48 hrs by sulforhodamine B assay; format: functional
[2] = Antioxidant activity assessed as DPPH radical scavenging activity incubated in dark for 30 mins by spectrophotometric method relative to ascorbic acid; format: functional
HCT-116 [3] = assay: Induction of apoptosis in human HCT116 cells assessed as increase in caspase 9 mRNA expression at 100 nM after 6 hrs hrs by SYBR green dye-based qRT-PCR analysis relative to control; format: functional
[4] = Pro-oxidant activity assessed as increase in bleomycin-Fe2+ induced calf thymus DNA damage at 2 mM after 1 hr by thiobarbituric acid based absorbance analysis
SK-MEL-2 = assay: Antiproliferative activity against human SK-MEL-2 cells assessed as growth inhibition after 48 hrs by sulforhodamine B assay; format: functional; conditions: SK-MEL-2, 48 h
HL-60(TB) = assay: Antiproliferative activity against human HL-60(TB) cells assessed as growth inhibition after 48 hrs by sulforhodamine B assay; format: functional; conditions: HL-60, 48 h
[5] = tested on: Panel NCI-60 (60 carcinoma cell lines); assay: Antiproliferative activity against human NCI60 cells assessed as growth inhibition at 10 uM after 48 hrs by sulforhodamine B assay; format: functional; conditions: read-out: GI
SNB-19 = assay: Antiproliferative activity against human SNB19 cells assessed as growth inhibition after 48 hrs by sulforhodamine B assay; format: functional; conditions: SNB-19, 48 h
[6] = Selectivity index, ratio of IC50 for human WI38 cells to GI50 for human NCI60 cells
KM12 = assay: Antiproliferative activity against human KM12 cells assessed as growth inhibition after 48 hrs by sulforhodamine B assay; format: functional; conditions: KM12, 48 h
A549 = assay: Antiproliferative activity against human A549/ATCC cells assessed as growth inhibition after 48 hrs by sulforhodamine B assay; format: functional; conditions: A549, 48 h
SK-MEL-5 = assay: Antiproliferative activity against human SK-MEL-5 cells assessed as growth inhibition after 48 hrs by sulforhodamine B assay; format: functional; conditions: SK-MEL-5, 48 h
786-0 = assay: Antiproliferative activity against human 786-0 cells assessed as growth inhibition after 48 hrs by sulforhodamine B assay; format: functional; conditions: 786-0, 48 h
HCT-116 [7] = assay: […] in CDK1 mRNA expression in human HCT116 cells at 100 nM after 6 hrs hrs by SYBR green dye-based qRT-PCR analysis relative to control; format: functional
PC-3 = assay: Antiproliferative activity against human PC3 cells assessed as growth inhibition after 48 hrs by sulforhodamine B assay; format: functional; conditions: PC-3, 48 h
NCI-H322M = assay: Antiproliferative activity against human NCI-H322M cells assessed as growth inhibition after 48 hrs by sulforhodamine B assay; format: functional
[8] = tested on: Panel NCI-60 (60 carcinoma cell lines); assay: Antiproliferative activity against human NCI60 cells assessed as growth inhibition after 48 hrs by sulforhodamine B assay; format: functional
U-251 = assay: Antiproliferative activity against human U251 cells assessed as growth inhibition after 48 hrs by sulforhodamine B assay; format: functional; conditions: U-251, 48 h
OVCAR-3 = assay: Antiproliferative activity against human OVCAR3 cells assessed as growth inhibition after 48 hrs by sulforhodamine B assay; format: functional; conditions: OVCAR-3, 48 h
UO-31 = assay: Antiproliferative activity against human UO31 cells assessed as growth inhibition after 48 hrs by sulforhodamine B assay; format: functional; conditions: UO-31, 48 h
DU-145 = assay: Antiproliferative activity against human DU145 cells assessed as growth inhibition after 48 hrs by sulforhodamine B assay; format: functional; conditions: DU-145, 48 h
LOX IMVI = assay: Antiproliferative activity against human LOXIMVI cells assessed as growth inhibition after 48 hrs by sulforhodamine B assay; format: functional
Hs-578T = assay: Antiproliferative activity against human Hs578T cells assessed as growth inhibition after 48 hrs by sulforhodamine B assay; format: functional
NCI-H460 = assay: Antiproliferative activity against human NCI-H460 cells assessed as growth inhibition after 48 hrs by sulforhodamine B assay; format: functional; conditions: NCI-H460, 48 h
SF-268 = assay: Antiproliferative activity against human SF268 cells assessed as growth inhibition after 48 hrs by sulforhodamine B assay; format: functional; conditions: SF-268, 48 h
[9] = Antioxidant activity assessed as hydroxyl radical scavenging activity after 1 hr by salicylic acid-based Fenton reaction assay; format: functional
IGROV-1 = assay: Antiproliferative activity against human IGROV1 cells assessed as growth inhibition after 48 hrs by sulforhodamine B assay; format: functional; conditions: IGROV-1, 48 h
HCC 2998 = assay: Antiproliferative activity against human HCC2998 cells assessed as growth inhibition after 48 hrs by sulforhodamine B assay; format: functional; conditions: HCC 2998, 48 h
Erythrocyte [10] = assay: Haemolytic activity in human erythrocytes assessed as induction of hemolysis at 1.25 mM after 30 mins relative to H202; format: cell-based; conditions: erythrocyte, 0.5 h, 1250 µM

Compound: N=C(N)c1ccc(-c2ccc(-c3ccc(Cl)cc3)o2)o1
- GI50 (MOLT-4): 1660 nM
- Activity (Erythrocyte [1]): Non-Toxic
- GI50 (SNB-75): 1500 nM
- GI50 (MDA-MB-435): 1380 nM
- GI50 (SK-OV-3): 1790 nM
- GI50 (EKVX): 1500 nM
- IC50 (WI-38): 10100 nM
- GI50 (HT-29): 1680 nM
- GI50 (ACHN): 1890 nM
- GI50 (Malme-3M): 1910 nM
- GI50 (CCRF-CEM): 1960 nM
- GI50 (HCT-15): 1520 nM
- GI50 (SF-295): 1830 nM
- GI50 (NCI/ADR-RES): 1800 nM
- fold change (FC) [2]: 0.2
- fold change (FC) (HCT-116 [3]): 4
- Activity [4]: Active
- GI50 (SK-MEL-2): 2080 nM
- GI50 (HL-60(TB)): 1870 nM
- inhibition of growth at 10 µM [5]: -2.02%
- GI50 (SNB-19): 1860 nM
- Selectivity Index [6]: 5.5
- GI50 (KM12): 1630 nM
- GI50 (A549): 1980 nM
- GI50 (SK-MEL-5): 1810 nM
- GI50 (786-0): 1850 nM
- fold change (FC) (HCT-116 [7]): 0.93
- GI50 (PC-3): 1810 nM
- GI50 (NCI-H322M): 1670 nM
- GI50 [8]: 1810 nM
- LC50 [8]: 12600 nM
- TGI [8]: 3720 nM
- GI50 (U-251): 1880 nM
- GI50 (OVCAR-3): 1830 nM
- GI50 (UO-31): 1750 nM
- GI50 (DU-145): 1750 nM
- GI50 (LOX IMVI): 1760 nM
- GI50 (Hs-578T): 2000 nM
- GI50 (NCI-H460): 1890 nM
- GI50 (SF-268): 1750 nM
- Activity [9]: Active
- GI50 (IGROV-1): 1770 nM
- GI50 (HCC 2998): 1960 nM

Compound: N=C(N)c1ccc(-c2ccc(-c3cncc4ccccc34)s2)s1
- GI50 (MOLT-4): 1170 nM
- Activity (Erythrocyte [1]): Non-Toxic
- GI50 (SNB-75): 1930 nM
- GI50 (MDA-MB-435): 2030 nM
- GI50 (SK-OV-3): 1580 nM
- GI50 (EKVX): 1330 nM
- IC50 (WI-38): > 100000 nM
- GI50 (HT-29): 560 nM
- GI50 (ACHN): 1480 nM
- GI50 (Malme-3M): 1610 nM
- GI50 (CCRF-CEM): 360 nM
- GI50 (HCT-15): 980 nM
- GI50 (SF-295): 1800 nM
- GI50 (NCI/ADR-RES): 1680 nM
- fold change (FC) [2]: 0.6
- fold change (FC) (HCT-116 [3]): 1.27
- Activity [4]: Active
- GI50 (SK-MEL-2): 2000 nM
- GI50 (HL-60(TB)): 1920 nM
- inhibition of growth at 10 µM [5]: -59.2%
- GI50 (SNB-19): 2170 nM
- Selectivity Index [6]: >74.6
- GI50 (KM12): 1510 nM
- GI50 (A549): 1620 nM
- GI50 (SK-MEL-5): 1740 nM
- GI50 (786-0): 1590 nM
- fold change (FC) (HCT-116 [7]): 0.16
- GI50 (PC-3): 1560 nM
- Activity (Erythrocyte [10]): Non-Toxic
- GI50 (NCI-H322M): 1660 nM
- GI50 [8]: 1340 nM
- LC50 [8]: 77600 nM
- TGI [8]: 3230 nM
- GI50 (U-251): 1720 nM
- GI50 (OVCAR-3): 1650 nM
- GI50 (UO-31): 1390 nM
- GI50 (DU-145): 1550 nM
- GI50 (LOX IMVI): 1110 nM
- GI50 (Hs-578T): 2220 nM
- GI50 (NCI-H460): 880 nM
- GI50 (SF-268): 1630 nM
- Activity [9]: Active
- GI50 (IGROV-1): 1910 nM
- GI50 (HCC 2998): 1530 nM

— ChEMBL document CHEMBL4346657, “Anticancer activity, dual prooxidant/antioxidant effect and apoptosis induction profile of new bichalcophene-5-carboxamidines” (Eur J Med Chem, 2019)
